“Also recorded” adds a separate entry of the source.

In one experiment the target is T1, TRPA1 (Homo sapiens, UniProt O75762).
T1 construct: expressed in transfected cells
The experiment is described as follows: TRPA1 specificity assay in transfected cells. The conditions noted are these: FIG. 5; mustard oil positive control. It is filed as cell-based.

Another experiment concerns philtrum skin. As to the kind of experiment: Cooling duration bioassay on philtrum skin. It counts as in vivo, human. An excerpt:
FIG. 1. Comparison of cooling duration of various p-menthanecarboxamide analogs on philtrum skin versus ocular margins. The philtrum skin is keratinized, but the ocular margins are not. The test substances numbered 1 to 11 are: D-Ala-OiPr, Gly-OiPr, D-Ala-OEt, D-Ala-OMe, D-Ala-GlynPr, GlynPr, D-Ala-OnBu, GlynBu, GlyOEt, L-Ala-OEt, and N-Me-D-Ala-OEt, respectively. Two outliers (1 and 2) were identified as preferred embodiments because they preferentially cool the ocular margins. The nasal cavity surfaces like the ocular margins are not keratinized.
Cooling agents have been assayed in various ways depending on intended use. For example, for the skin the test substance can be applied on philtrum skin, using descriptions of coolness on a scale of 0 to 3. For the ocular surface, the active ingredient can be applied to the closed eyelids using a wipe. In the oral cavity, drug applications are on the posterior dorsal surface of the tongue. For the oropharyngeal surface, the cooling agent may be applied as an orally disintegrating tablet. The ability of a cooling agent to antagonize a noxious stimuli may also be tested, using nociception from citric acid or chili pepper sauce. Responses are usually measured using a Visual Analog Scale with a numerical rating. For nasal responses, however, such procedures have not been standardized. Some endpoints to consider are open and comfortable breathing, the presence or absence of sniffles, and the secretion of phlegm.

Another experiment concerns nasal cavity. As to the kind of experiment: Nebulizer screening of TRPM8 agonists for sensations in the nasal cavity. It is filed as in vivo, human. The conditions noted are these: NasoNeb nebulizer, 3 to 5 sec per nostril.
For a further experiment, the system named is ostiomeatal complex. As to the kind of experiment: Case studies: nebulized cooling agent in subjects with rhinitis and rhinosinusitis. It is filed as in vivo, human. To be noted: for Relief of stuffiness and breathing: NasoNeb delivery in subjects with rhinosinusitis. From the text:
Eight subjects with rhinitis and rhinosinusitis volunteered to test cooling agents delivered with the NasoNeb® nebulizer (FIG. 3). The results were clear, robust, and evident. No statistical analysis was necessary. In a 3 to 5-day course of nebulization t.i.d., all subjects reported the ability to manage and control stuffed-up breathing in their activities. All reported comfortable sleep. The sounds of sniffling and congestion of the nose (“sniffles”), snorting, or gurgling were still present, but to a lesser degree. The subject felt it was easier to blow out liquids from the nasal cavity onto a tissue, and the volume and frequency of blowing decreased. Viscous yellow mucus was less in volume and density. The number of wipes deposited daily into a waste basket decreased by >50%. The subjects-were cheerful and enthusiastic because nasal discomfort was under control. As one subject remarked: “The stuffed-up nose problem is now history!” Severat of these cases are reported below as “Case Studies.”
The subject was given a NasoNeb® nebulizer (unavailable in China) and five individual bottles containing 15 mL of a 1% GlyOiPr solution (suspended in 2% Tween 80, 5% ethanol, and 92% water). They were shown how to load the NasoNeb canister with about 2 mL of liquid and activate the device for a 3-second dose into each nostril. The recommended dosage was three times a day, starting in the morning and at about 6-hour intervals, and for five days.
The subject agreed to using the NasoNeb nebulizer with a cooling agent. They were given a NasoNeb nebulizer and three bottles, each containing 15 ml of a 1% GlyOiPr solution (suspended in 2% Tween 80, 5% ethanol, and 92% water). They were shown how to load the NasoNeb canister with about 2 mL of liquid and activate the device for a 3-second dose into each nostril. The recommended dosage was three times a day, starting in the morning and at about 6-hour intervals, and for five days. After a 5-day trial, the subject noted a significant improvement in sleep and comfortable breathing. […] Their headaches were gone, and their appetite improved. They were advised to continue using the Nebulizer/coolant for another week and then on an as-needed basis. Their family has noticed that the subject has become less withdrawn, more engaging, and interested in their surroundings.
The subject volunteered for a trial with GlyOiPr. They were given a NasoNeb® machine and a plastic squeeze bottle containing 50 mL of GlyOiPr at 3 mg/mL suspended in 1% ethanol/2% polysorbate 80. They learned how to load the canister and activate the pump. Then, they were instructed to rinse their nose thoroughly first thing in the morning and then use the Nebulizer at 5 sec per nostril to deliver the solution. The procedure was to be repeated at 2 hours and 5 hours later to total three daily activations. The subject was interviewed after dosing for three days. They said breathing was much easier at night after the dosing, and they slept well. Nasal secretions were still present but less in volume. […] They were encouraged to use the Nebulizer as needed but not to exceed three daily doses. Three weeks after the start of the experiment, they reported that they were in complete control of their rhinitis. They would do a single dose at night before sleep and one in the morning when needed. They no longer felt congested, and the headaches were gone. The slimy phlegm in the nostrils was gone, and crusting was absent. Their nose felt clean. Their social life improved.
Their main complaint was episodes at night when they would wake up and not be able to breathe comfortably. Sleep apnea and lung disorders were ruled out, and the diagnosis was rhinosinusitis. This was confirmed by a computerized tomography scan and endoscopic examination by a qualified ENT specialist. They agreed to test the preferred embodiments GlyOnPr, GlyOiPr, D-Ala-OnPr, and D-Ala-OiPr systematically, one after the other.

T1 sequence (O75762 whole entry, species assumed): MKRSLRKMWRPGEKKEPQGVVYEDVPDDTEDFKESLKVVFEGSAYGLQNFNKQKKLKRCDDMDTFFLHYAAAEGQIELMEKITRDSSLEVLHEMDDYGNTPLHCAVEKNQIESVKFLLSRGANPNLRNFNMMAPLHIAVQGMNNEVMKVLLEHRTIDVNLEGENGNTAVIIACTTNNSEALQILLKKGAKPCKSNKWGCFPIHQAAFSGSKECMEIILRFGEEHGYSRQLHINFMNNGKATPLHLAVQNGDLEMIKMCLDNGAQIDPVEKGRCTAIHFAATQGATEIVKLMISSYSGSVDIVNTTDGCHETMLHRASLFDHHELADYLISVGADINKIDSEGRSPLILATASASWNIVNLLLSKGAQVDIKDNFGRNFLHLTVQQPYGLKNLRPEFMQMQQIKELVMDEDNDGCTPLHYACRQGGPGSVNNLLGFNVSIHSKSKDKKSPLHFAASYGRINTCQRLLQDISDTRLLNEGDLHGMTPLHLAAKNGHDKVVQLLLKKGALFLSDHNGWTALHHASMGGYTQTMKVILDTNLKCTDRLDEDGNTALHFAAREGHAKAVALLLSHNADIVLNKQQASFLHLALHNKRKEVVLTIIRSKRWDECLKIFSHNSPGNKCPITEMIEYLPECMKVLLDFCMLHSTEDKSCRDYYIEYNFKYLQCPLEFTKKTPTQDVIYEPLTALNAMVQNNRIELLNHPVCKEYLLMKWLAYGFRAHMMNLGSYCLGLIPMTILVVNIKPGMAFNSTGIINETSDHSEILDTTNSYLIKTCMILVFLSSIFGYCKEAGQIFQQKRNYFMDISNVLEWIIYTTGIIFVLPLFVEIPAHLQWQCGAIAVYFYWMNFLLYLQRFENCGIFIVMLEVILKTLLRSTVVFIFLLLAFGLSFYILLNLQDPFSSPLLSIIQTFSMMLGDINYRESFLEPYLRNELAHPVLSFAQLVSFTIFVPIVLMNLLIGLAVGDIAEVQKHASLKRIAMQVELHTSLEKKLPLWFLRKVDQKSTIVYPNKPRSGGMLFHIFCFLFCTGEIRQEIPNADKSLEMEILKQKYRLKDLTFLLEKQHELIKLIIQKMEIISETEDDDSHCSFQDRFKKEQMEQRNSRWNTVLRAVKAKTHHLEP

`CC(C)OC(=O)[C@@H](C)NC(=O)[C@@H]1C[C@H](C)CC[C@H]1C(C)C` [D-Ala-OiPr, (R)-2-[((1R,2S,5R)-2-isopropyl-5-methyl-cyclohexanecarbonyl)amino]-propionic acid i-propyl ester]: the “Response of cells transfected with TRPA1” value at TRPA1 was “inactive”. In the experiment on philtrum skin (Table 6, cooling duration, keratinized skin), the “Philtrum Skin” value came out at 34 min. For the same compound, in the experiment on nasal cavity, the “Sensory effects after delivery into the nasal cavity” value is “Longer-acting than GlyOiPr. Excellent agent. It may have a slightly bitter taste”. Moreover, in the experiment on ostiomeatal complex, the “Relief of stuffiness and breathing” value is reported as “provided relief”.
On to `CC(C)OC(=O)CNC(=O)[C@@H]1C[C@H](C)CC[C@H]1C(C)C` [GlyOiPr, [((1R,2S,5R)-2-isopropyl-5-methyl-cyclohexanecarbonyl)-amino]-acetic acid isopropyl ester], for which the “Response of cells transfected with TRPA1” value on TRPA1 is on record as “do not respond; also recorded: activates TRPM8 but not TRPV1 or TRPA1”. For the same compound, the “Philtrum Skin” value with philtrum skin (Table 7, Gly esters) stood at 27 min. For the same compound, the “Sensory effects after delivery into the nasal cavity” value in the experiment on nasal cavity is listed as “The sense of coolness is pure, without any harsh tones”. In the experiment with ostiomeatal complex (GlyOiPr by NasoNeb three times a day), the “Number of Kleenex tissues used after treatment” value is “about five per day; also recorded: decline by half”. Also, the “Relief of stuffiness and breathing” value with ostiomeatal complex is “immediate sensation of comfortable cooling in the nose and the ability to have unimpeded breathing; also recorded: provided relief”. In the experiment with ostiomeatal complex (nebulization three times a day, several days), the “Decrease in number of wipes used to blow the nose” value is listed as “at least 50%”.
